Earlier results as cited in paper PMC3918245 (ChemMedChem, 2013).

Test system: deep-pocket MMPs
Conditions: semi-selective inhibition; specific inhibitors of MMP-8 and MMP-12

O=C(NCc1ccc(-c2ccccc2)cc1)c1cccc(=O)n1O [1,2-HOPO-2]
IC50 against deep-pocket MMPs: low nanomolar range
